Measurements as given in patent EP0960886B1, “Peptide T and related peptides in the treatment of inflammation, including multiple sclerosis” (priority 1992, dated 1993).

Experiments:
PBMC = assay: Mitogen induced proliferation of PBMC, 3H thymidine uptake, 6 day culture (Example 8); format: cell-based, human
Method: PBMC (10^5) were cultured in 200 µl RPMI containing 10% heat inactivated foetal bovine serum, 2 mM L-glutamine and gentamycin 100 µg/ml with mitogen and Peptide T added on the first day of culture. Growth was assessed in triplicate by ^3H thymidine uptake following a 6 day incubation and expressed as a proliferation index (cpm in presence of mitogen ± Peptide T […] cpm in absence of stimulation). A proliferation index >1.00 implies growth beyond that in media alone. At physiologically obtainable concentrations, Peptide T inhibits proliferation of normal (HIV seronegative) peripheral blood mononuclear cells (PBMC) without causing significant cytotoxicity as shown in Table III. This effect is long term in that Peptide T given on the first day of a six day culture will inhibit mitogen induced proliferation.

human neutrophils = assay: TNF-induced neutrophil chemiluminescence (lucigenin-dependent); format: cell-based; settings: Figure 10
Method: Neutrophils. Neutrophils were isolated from whole blood from healthy blood donors. Separation was achieved by the rapid-single-step method of centrifugation of whole blood on FICOLL-HYPAQUE™. These were >99% viable and usually >98% pure.
Peptides and TNF. TNF was a recombinant product produced in E. coli. Peptide T and analogue 505 (D-Ser-Ser-D-Thr-Thr-D-Thr-Thr-Tyr-D-Thr) were resuspended in Hank's Balanced Salt Solution (HBSS).
To 100µl of 500-1000U/ml of TNF was added 10µl of peptide and after 5 min 100µl of 1x10^7 neutrophils/ml was added. The cells further incubated at 37°C/20 min and then tested for chemiluminescence activity. In some cases an agonist such as fMLP (10^-7M) was added. Chemiluminescence was measured in a luminometer (LKB). The results for Peptide T are presented in Figure 12 as peak rate of CL release. Lucigenin-dependent chemiluminescence was measured: this represents superoxide measurement. In another set of experiments the effects of analogue 505 on the LPS-induced neutrophil chemiluminescence were examined. In this case the LPS was essentially substituted for the TNF. The concentration of LPS was 0.005µg/ml.

C[C@@H](N)C(=O)N[C@@H](CO)C(=O)N[C@H](C(=O)N[C@H](C(=O)N[C@H](C(=O)N[C@@H](CC(N)=O)C(=O)N[C@@H](Cc1ccc(O)cc1)C(=O)N[C@H](C(N)=O)[C@@H](C)O)[C@@H](C)O)[C@@H](C)O)[C@@H](C)O [Peptide T, D-Ala-Ser-Thr-Thr-Thr-Asn-Tyr-Thr-NH2]
Proliferation Index ± SD (PBMC; ConA 25 µg/ml, Peptide T 10^-5 mol/l, without Peptide T 4.55±0.66): 2.72±1.20 | Proliferation Index ± SD (PBMC; ConA 25 µg/ml, Peptide T 10^-7 mol/l, without Peptide T 4.55±0.66): 3.19±0.06 | Proliferation Index ± SD (PBMC; ConA 25 µg/ml, Peptide T 10^-9 mol/l, without Peptide T 4.55±0.66): 1.98±0.04 | Proliferation Index ± SD (PBMC; ConA 25 µg/ml, Peptide T 10^-12 mol/l, without Peptide T 4.55±0.66): 1.69±0.48 | Proliferation Index ± SD (PBMC; Media (absence of mitogens), Peptide T 10^-5 mol/l): 1.14±0.15 | Proliferation Index ± SD (PBMC; Media (absence of mitogens), Peptide T 10^-7 mol/l): 0.73±0.16 | Proliferation Index ± SD (PBMC; Media (absence of mitogens), Peptide T 10^-9 mol/l): 2.17±1.10 | Proliferation Index ± SD (PBMC; Media (absence of mitogens), Peptide T 10^-12 mol/l): 1.52±0.15 | Proliferation Index ± SD (PBMC; PHA 25 µg/ml, Peptide T 10^-5 mol/l, without Peptide T 317.0±41.0): 149.0±38.4 | Proliferation Index ± SD (PBMC; PHA 25 µg/ml, Peptide T 10^-7 mol/l, without Peptide T 317.0±41.0): 123.6±18.1 | Proliferation Index ± SD (PBMC; PHA 25 µg/ml, Peptide T 10^-9 mol/l, without Peptide T 317.0±41.0): 78.6±23.1 | Proliferation Index ± SD (PBMC; PHA 25 µg/ml, Peptide T 10^-12 mol/l, without Peptide T 317.0±41.0): 103.8±22.8 | Proliferation Index ± SD (PBMC; PWM 25 µg/ml, Peptide T 10^-7 mol/l, without Peptide T 7.47±0.50): 4.47±0.36 | Proliferation Index ± SD (PBMC; PWM 25 µg/ml, Peptide T 10^-9 mol/l, without Peptide T 7.47±0.50): 4.69±0.42 | Proliferation Index ± SD (PBMC; PWM 25 µg/ml, Peptide T 10^-12 mol/l, without Peptide T 7.47±0.50): 4.15±0.23 | activation of human neutrophils by TNF (human neutrophils): inhibits activation of human neutrophils by TNF
